Read-outs that look alike come from different tables or passages of the source.
How the values were obtained:
IMP-1 = IMP-1 (Serratia marcescens, UniProt P52699); experiment: biochemical; type: biochemical; settings: fluorescence assay, CCF2-FA substrate, 2 pM enzyme, 2 hours at 25° C.; read-out: IMP-1 IC50
How it was run: (§1)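 Test compound, enzyme and the FRET cephalosporin substrate CCF2-FA are incubated together for 2 hours at 25° C. Cleavage is followed by fluorescence, and IC50 values are derived from semi-logarithmic inhibition curves fitted with a 4-parameter model.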

NDM-1 = NDM-1 (Klebsiella pneumoniae, UniProt C7C422); experiment: biochemical; type: biochemical; settings: fluorescence assay, CCF2-FA substrate, 1 pM enzyme, 2 hours at 25° C.; read-out: NDM-1 IC50
NDM-1, sequence (C7C422 whole entry, looked up, species assumed): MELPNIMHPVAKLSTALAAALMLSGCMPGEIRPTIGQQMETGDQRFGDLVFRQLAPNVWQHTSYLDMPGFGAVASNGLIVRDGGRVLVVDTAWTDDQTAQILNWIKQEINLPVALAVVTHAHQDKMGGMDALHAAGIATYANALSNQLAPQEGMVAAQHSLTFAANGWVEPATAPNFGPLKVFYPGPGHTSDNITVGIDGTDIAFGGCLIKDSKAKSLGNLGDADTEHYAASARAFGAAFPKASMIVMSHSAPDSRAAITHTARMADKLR
How it was run: as §1

VIM-1 = VIM-1 (Pseudomonas aeruginosa (strain ATCC 15692 / DSM 22644 / CIP 104116 / JCM 14847 / LMG 12228 / 1C / PRS 101 / PAO1), UniProt A0A0F7KYQ8); experiment: biochemical; settings: CCF2-FA substrate, 30 pM enzyme, 2 hours at 25° C.
How it was run: as §1

[1] = test system: Escherichia coli expressing NDM-1 (CLB30005, CLB30016); type: cell-based; settings: with imipenem 1 μg/ml; 95% inhibition of bacterial growth
How it was run: (§2)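 Clinical strains grown overnight on blood agar at 35°C, colonies suspended in saline, diluted 1:100 into 1.1×CAMHB. Test compound titrated with imipenem at 1 μg/ml; incubated 22–24 h at 35°C, growth read by absorbance.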

[2] = test system: Klebsiella pneumoniae expressing VIM-1 (IHMA599644); type: cell-based; settings: with imipenem 1 μg/ml; 95% inhibition of bacterial growth
How it was run: as §2

[3] = test system: Serratia marcescens expressing IMP-1 (CL5741); type: cell-based; settings: with imipenem 1 μg/ml; 95% inhibition of bacterial growth
How it was run: as §2

[4] = test system: Pseudomonas aeruginosa efflux+ (MB9798), IMP-1; type: cell-based; settings: concentration restoring susceptibility to imipenem at 2 μg/mL in the presence of a class A, C, D serine β-lactamase inhibitor closely related to relebactam
How it was run: (§3)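 PAO1 pair, broth microdilution; fixed β-lactam (imipenem/ceftazidime) at ~CLSI breakpoint + fixed class A/C BLI for AmpC; serial MBLi titration; endpoint = MBLi conc. restoring susceptibility; MB9798:MB9799 ratio = efflux liability.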

[5] = test system: Pseudomonas aeruginosa efflux− (MB9799), IMP-1; type: cell-based; settings: concentration restoring susceptibility to imipenem at 2 μg/mL in the presence of a class A, C, D serine β-lactamase inhibitor closely related to relebactam
How it was run: as §3

[6] = test system: Pseudomonas aeruginosa MB9798 vs MB9799; settings: ratio MITC95 PA_9798/MITC95 PA_9799
How it was run: as §3

[7] = fluorescence assay, read-out: VIM-1 IC50

IMP-1, sequence (P52699 whole entry, looked up, species assumed): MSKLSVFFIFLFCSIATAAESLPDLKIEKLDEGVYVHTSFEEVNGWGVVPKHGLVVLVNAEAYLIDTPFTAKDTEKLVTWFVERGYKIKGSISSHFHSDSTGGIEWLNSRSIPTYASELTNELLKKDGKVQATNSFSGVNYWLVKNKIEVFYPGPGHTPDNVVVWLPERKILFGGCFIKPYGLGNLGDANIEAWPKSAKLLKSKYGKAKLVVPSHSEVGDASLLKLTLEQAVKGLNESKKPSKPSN

SMILES	IC50 (IMP-1)	IC50 (NDM-1)	IC50 (VIM-1; [7])	Escherichia coli expressing NDM-1 (CLB30016) MITC95 [1]	Klebsiella pneumoniae expressing VIM-1 (IHMA599644) MITC95 [2]	Serratia marcescens expressing IMP-1 (CL5741) MITC95 [3]	P. aeruginosa expressing IMP-1, efflux + (MB9798) MITC95 [4]	P. aeruginosa expressing IMP-1, efflux − (MB9799) MITC95 [5]	Efflux ratio [6]	IC50 (VIM-1; VIM-1 IC50, fluorescence assay)
Nc1nc2c(-c3ccc(S(=O)(=O)N4CC5(CCNC5)C4)c(S(N)(=O)=O)c3-c3nnn[nH]3)cccc2s1 [Example 48, 3-(2-amino-1,3-benzothiazol-4-yl)-6-(2,6-diazaspiro[3.4]oct-2-ylsulfonyl)-2-(1H-tetrazol-5-yl)benzenesulfonamide]	951 pM	258 pM	490 pM	6.25 µM	3.125 µM	3.125 µM	1.563 µM	1.563 µM	1.00	–
Nc1nc2c(-c3ccc(S(=O)(=O)NCCC(N)C(F)(F)F)c(S(N)(=O)=O)c3-c3nnn[nH]3)cccc2s1 (stereo not drawn) [Example 49, 4-(2-amino-1,3-benzothiazol-4-yl)-N1-(3-amino-4,4,4-trifluorobutyl)-3-(1H-tetrazol-5-yl)benzene-1,2-disulfonamide]	413 pM	67.3 pM	328 pM	25 µM	25 µM	12.5 µM	50 µM	6.25 µM	8.00	–
Nc1nc2c(-c3ccc(S(=O)(=O)N[C@H]4CO[C@H]5[C@H]4OC[C@H]5O)c(S(N)(=O)=O)c3-c3nnn[nH]3)cccc2s1 [Example 50, 2-({[4-(2-amino-1,3-benzothiazol-4-yl)-2-sulfamoyl-3-(1H-tetrazol-5-yl)phenyl]sulfonyl}amino)-1,4:3,6-dianhydro-2-deoxy-D-allitol]	263 pM	40.8 pM	–	25 µM	25 µM	12.5 µM	12.5 µM	6.25 µM	2.00	250 pM
CC(CN1CCOCC1)NS(=O)(=O)c1ccc(-c2cccc3sc(N)nc23)c(-c2nnn[nH]2)c1S(N)(=O)=O (stereo not drawn) [Example 51, 4-(2-amino-1,3-benzothiazol-4-yl)-N1-(1-methyl-2-morpholin-4-ylethyl)-3-(1H-tetrazol-5-yl)benzene-1,2-disulfonamide]	393 pM	97 pM	441 pM	25 µM	25 µM	12.5 µM	25 µM	6.25 µM	4.00	–
CN(C)CCCN(C)S(=O)(=O)c1ccc(-c2cccc3sc(N)nc23)c(-c2nnn[nH]2)c1S(N)(=O)=O [Example 52, 4-(2-amino-1,3-benzothiazol-4-yl)-N1-[3-(dimethylamino)propyl]-N~1~-methyl-3-(1H-tetrazol-5-yl)benzene-1,2-disulfonamide]	5940 pM	15300 pM	25300 pM	12.5 µM	50 µM	3.125 µM	6.25 µM	3.125 µM	2.00	–
CN1CCC(NS(=O)(=O)c2ccc(-c3cccc4sc(N)nc34)c(-c3nnn[nH]3)c2S(N)(=O)=O)C1 (stereo not drawn) [Example 53, 4-(2-amino-1,3-benzothiazol-4-yl)-N1-(1-methylpyrrolidin-3-yl)-3-(1H-tetrazol-5-yl)benzene-1,2-disulfonamide]	298 pM	41.5 pM	192 pM	3.125 µM	3.125 µM	1.563 µM	1.563 µM	1.563 µM	1.00	–

— patent US10221163B2 (priority 2015, dated 2019)
